According to US20240417371A1, “CANNABIDIOL DERIVATIVE, AND PREPARATION METHOD THEREFOR AND USE THEREOF” (priority 2021, published 2024):

Columns and labels:
[1] = high-purity CBD, background statement; cited from earlier work
[2] = system: mouse model of Parkinson's disease established by the intraperitoneal injection of MPTP; assay: Behavioral balance beam score in MPTP model of Parkinson's disease; format: in vivo, C57/BL6 mice; details: scale 0-5
Method: C57/BL6 mice, SPF grade, weighing 18-20 g, aged 6-8 weeks, male, purchased from Shanghai Slac Laboratory Animal Co., Ltd. Feeding environment: the temperature was kept at 22±1° C., and the humidity was kept at 65%-70%, in a 12/12 hour light/dark illumination cycle, with free access to water.
(§1) • (1) SPF-grade C57 mice aged 6-8 weeks were purchased and acclimatized for one week, and subsequently the modeling was started. • (2) MPTP (25 mg/kg) was intraperitoneally injected once a day for 7 consecutive days. The blank group was left untreated. • (3) After modeling, administration was started. […] The intragastric administration was performed once a day for 14 consecutive days. • (4) Behavioral test was first performed by balance beam test scoring.
A beam of 80 cm long and 2.5 cm wide was horizontally fixed at a height of 10 cm from the table top, and subsequently, the animals were allowed to walk on the beam. […]

Solubility in water = format: physicochemical
Source text: ^1[…]=0.8 Hz, 1[…]=7.6 Hz, 2[…]=6.8 Hz, 3H).

Bcl-2 = assay: WB detection of apoptosis-related protein Bcl-2 in hippocampal tissues of PTZ-kindling rats; format: in vivo, Wistar rats; details: hippocampus at end of 14-day treatment, 100 mg/kg intragastric
Method: (§2) At the end of the experiment, the brains and hippocampi of the laboratory animals were collected and frozen at −80° C.
(§3) 4. WB Detection of Expression of Apoptosis-Related Proteins Bax and Bcl-2 in Hippocampal Tissues of Rats:
(§4) The hippocampal tissue was cut into small pieces, the lysis buffer (protease and phosphatase inhibitors added to the lysis buffer) was added at a ratio of 150-250 μL:20 mg, and the mixture was homogenized with a homogenizer until complete lysis. The sample obtained after the lysis was centrifuged at 12,000 g at 4° C. for 15 min. The supernatant was taken, subjected to protein quantification, and stored in a refrigerator at −80° C.
(§5) • (1) Standard curve plotting: a microplate was taken, and reagents were added according to the table below. […]
(§6) About 25 μg of the protein was loaded into each well, and the loading amount can be increased according to the experiment requirements. According to the results of protein quantification, the required protein was taken and a proper amount of sample loading buffer was added. […]

dopamine = assay: Content of dopamine in striatum of the model of Parkinson's disease (kit method); format: in vivo, C57/BL6 mice; details: MPTP mice; intragastric 100 mg/kg for 14 days (positive drug = amantadine 40 mg/kg)
Source text: After the mice were sacrificed quickly, the brains of the mice were taken and the cerebral palliums (CPs) of the mice were isolated. After exposing the brain striatum of the mice, the striatum was weighed and homogenized after adding PBS according to a proportion. The supernatant was isolated and detected for the content of dopamine in the brain striatum.

aspartic acid = assay: Content of aspartic acid in homogenate of brain tissues of rats (kit method); format: in vivo, Wistar rats; details: PTZ rats after 14 days, 100 mg/kg intragastric (positive drug = valproate)
Method: (§7) 5. Determination of Contents of γ-Aminobutyric Acid, Glutamic Acid, Glycine, and Aspartic Acid in Rat Brain Tissue by the Kit Method
(§8) The experimental procedures and methods were referred to the kit instructions.
(§9) The contents of excitatory amino acids (glutamic acid and aspartic acid) and inhibitory neurotransmitters (γ-aminobutyric acid and glycine) in the homogenate of brain tissues were determined by an ELISA kit.

glycine = assay: Content of glycine in homogenate of brain tissues of rats (kit method); format: in vivo, Wistar rats; details: PTZ rats after 14 days, 100 mg/kg intragastric (positive drug = valproate)
Method: as §7, §8, §9

[3] = system: tyrosine hydroxylase (TH) cells in substantia nigra (SubN); assay: Tyrosine hydroxylase (TH) cells in substantia nigra (SubN) by immunohistochemistry; format: in vivo, C57/BL6 mice; details: MPTP mice, intragastric 100 mg/kg for 14 days (positive drug = amantadine 40 mg/kg)
Method: as §1
5. Determination of Tyrosine Hydroxylase (TH) Cells in Substantia Nigra (SubN) by Immunohistochemistry
The tissue should be cut using sharp knives and scissors. When cutting a tissue mass, the tissue was cut by pulling backwards from the root of the knife. […] The prepared tissue mass was fixed in 10% formalin for 48 h.
The fixed tissue was washed with running water to remove residual fixing liquid and impurities. The tissue mass was dehydrated in stages with different concentrations of ethanol (50%, 70%, 85%, 95%, up to pure alcohol (absolute ethanol)), each stage for 2 h. Dehydration must be performed in a capped flask to prevent high concentrations of ethanol from absorbing moisture in the air, resulting in reduced concentrations and incomplete dehydration. The material to be preserved can remain in 70% ethanol when being dehydrated with it. For long-term preservation, an equivalent amount of glycerol can be added. […]

glutamic acid = assay: Content of glutamic acid in homogenate of brain tissues of rats (kit method); format: in vivo, Wistar rats; details: PTZ rats after 14 days, 100 mg/kg intragastric (positive drug = valproate)
Method: as §7, §8, §9

Bax = assay: WB detection of apoptosis-related protein Bax in hippocampal tissues of PTZ-kindling rats; format: in vivo, Wistar rats; details: hippocampus at end of 14-day treatment, 100 mg/kg intragastric, versus model group
Method: as §2, §3, §4, §5, §6

γ-aminobutyric acid = assay: Content of γ-aminobutyric acid in homogenate of brain tissues of rats (kit method); format: in vivo, Wistar rats; details: PTZ rats after 14 days, 100 mg/kg intragastric (positive drug = valproate)
Method: as §7, §8, §9

[4] = system: PTZ-kindling epileptic rats; assay: PTZ-kindling epilepsy model: seizure duration, Ono's grade, latency; format: in vivo, Wistar rats
Method: Wistar rats, SPF grade, weighing 240-260 g, aged 6-8 weeks, female, purchased from Shanghai Slac Laboratory Animal Co., Ltd. Feeding environment: the temperature was kept at 22±1° C., and the humidity was kept at 65%-70%, in a 12/12 hour light/dark illumination cycle, with free access to water.
After 1 week of acclimatization of all rats, modeling was started. A 1.75% PTZ solution was prepared with normal saline, and the prepared PTZ solution was injected intraperitoneally at a dose of 35 mg/kg. PTZ was injected once every other day, and behavioral changes of the rats were observed within 30 min after the PTZ injection, and the seizure grade was recorded.
During the experiment, after 11 consecutive injections of PTZ, the seizure grade was recorded. All rats had 5 consecutive recordings of grade 2 or above, and modeling for all rats was successful after 11 consecutive injections of PZT into all rats.
After the modeling was successful, the rats were randomly grouped. Treatment was started. All Wistar rats were weighed and doses for the intragastric administration were calculated.
Before the administration and on day 7 and day 14 after the administration, the prepared PTZ solution was injected intraperitoneally at a dose of 35 mg/kg 1 h after intragastric administration. Behavioral changes of the rats were observed within 30 min after the PTZ injection.
Behavioral seizure indexes before and after the administration were recorded and graded according to Ono's grading. The seizure latency, seizure grade and seizure duration were recorded.

SMILES: C=C(C)[C@@H]1CCC(C)=C[C@H]1c1c(O)cc(CCCCC)cc1O [CBD, 2-[(1R,6R)-3-methyl-6-(1-methylvinyl)-2-cyclohexen-1-yl]-5-pentyl-1,3-benzenediol]
- solubility in water [1]: almost insoluble in water

SMILES: C=C(C)[C@@H]1CCC(C)=C[C@H]1c1c(O)cc(CCCCC)cc1OCC(=O)N[C@@H](CCSC)C(=O)[O-].[Na+] [Compound E1]
- behavioral balance beam score, After modeling ([2]; after MPTP 25 mg/kg i.p. for 7 days, before treatment): 4.63 ± 0.52
- behavioral balance beam score, After treatment ([2]; intragastric 100 mg/kg once a day for 14 days (positive drug = amantadine 40 mg/kg)): 3.75 ± 0.89
- solubility (Solubility in water): 27 mg/mL
- Bcl-2 protein expression in hippocampal tissues (Bcl-2): significantly higher than that in the model group
- DA, content of dopamine in striatum after treatment (dopamine): 0.45 ± 0.09 # ng/mg
- Aspartic acid (aspartic acid): 58.10 ± 11.71 µmol/g
- Glycine (glycine): 0.67 ± 0.07 ng/µg
- TH cell positive rate [3]: 16.92 ± 3.13 %
- Glutamic acid (glutamic acid): 0.14 ± 0.02 µmol/mg
- Bax protein expression in hippocampal tissues (Bax): significant down-regulation of Bax protein expression
- γ-aminobutyric acid (γ-aminobutyric acid): 771.17 ± 81.98 nmol/g
- Ono's grade before treatment ([4]; grade 0-6 (Table 1), baseline before treatment): 3.17 ± 0.41
- Ono's grade on day 7 of treatment ([4]; grade 0-6, intragastric 100 mg/kg (positive drug = valproate), day 7): 3.33 ± 0.52
- Ono's grade on day 14 of treatment ([4]; grade 0-6, intragastric 100 mg/kg (positive drug = valproate), day 14): 3.33 ± 0.52
- Duration on day 7 of treatment ([4]; intragastric 100 mg/kg (positive drug = valproate 100 mg/kg), PTZ 35 mg/kg i.p. 1 h after administration, day 7): 290.50 ± 66.93 s
- Duration on day 14 of treatment ([4]; intragastric 100 mg/kg (positive drug = valproate 100 mg/kg), PTZ 35 mg/kg i.p. 1 h after administration, day 14): 299.67 ± 39.25 s
- Latency on day 7 of treatment ([4]; intragastric 100 mg/kg (positive drug = valproate), day 7): 82.83 ± 20.90 s
- Latency on day 14 of treatment ([4]; intragastric 100 mg/kg (positive drug = valproate), day 14): 87.00 ± 20.96 s
- change in duration of seizure on day 14 as compared to day 7 of treatment ([4]; intragastric 100 mg/kg, PTZ-kindling rats): no change in the duration of seizure
- Latency before treatment ([4]; latency to seizure after PTZ 35 mg/kg i.p., baseline before treatment): 85.75 ± 21.45 s
- Duration before treatment ([4]; seizure duration after PTZ 35 mg/kg i.p., baseline before treatment): 359.83 ± 14.41 s

SMILES: C=C(C)[C@@H]1CCC(C)=C[C@H]1c1c(OCC(=O)N[C@@H](CCSC)C(=O)[O-])cc(CCCCC)cc1OCC(=O)N[C@@H](CCSC)C(=O)[O-].[Na+].[Na+] [Compound E2]
- solubility (Solubility in water): 200 mg/mL
